Source: patent US20240317716A1, “METHOD FOR PREPARING XANTHINE OXIDASE INHIBITOR” (LG CHEM, LTD., priority 2021, published 2024)
≈ marks a conversion by molar mass, not a printed value.

Assay: Solubility of 1-(3-cyano-1-isopropyl-indol-5-yl)pyrazole-4-carboxylic acid in organic solvents
Type: physicochemical
Conditions: organic solvent or mixture

## CC(C)n1cc(C#N)c2cc(-n3cc(C(=O)O)cn3)ccc21 [1-(3-Cyano-1-isopropyl-indol-5-yl)pyrazole-4-carboxylic acid]
In ACN
  solubility: ≤ 100 µg/mL
In EtOAc
  solubility: ≤ 100 µg/mL
In MeOH
  solubility: ≤ 100 µg/mL
In acetone
  solubility: 100 to 1000 µg/mL (≈ 340 to 3400 µM)
